Test [1] has as its target T1, AFF4-CCNT1 interaction (GST-CCNT1 AA 1-300 and biotin-AFF4 peptide AA 32-67) (Homo sapiens, UniProt O60563).
T1 construct: Recombinant GST-CCNT1 (1-300), which was purified by Glutathione Superflow Agarose from Rosetta cells; VCPBIO (peptide synthesis) Addgene P#432; host or cells: Rosetta cells
Put plainly: AlphaLISA assay of the AFF4-CCNT1 interaction (Alpha Screen). Format: binding. The text has this:
FIG. 1. Peptidomimetic identification of disruptors of the AFF4-CCNT1 interaction within the Super Elongation Complex. (A) Schematic for the identification of small molecule inhibitors of the AFF4-CCNT1 interaction using in silico high-throughput screening. Compounds from the ZINC database were docked with the AFF4-CCNT1 structure (4IMY) using a three-tier glide-docking algorithm, which led to 40 candidates. Residues forming the deep binding pocket of CCNT1 are labeled orange and residues of the AFF4 peptide are labeled red. (B) Validation screening identified KL-1 as a potential SEC disruptor using AlphaLISA screening. GST-CCNT1 (AA 1-300) and biotin-labeled AFF4 peptide (AA 32-67) were used to measure the AFF4-CCNT1 interaction with the AlphaLISA assay. (C) Similarity search for KL-1-like molecules identified KL-2. The peptidomimetic potential of KL-1 and KL-2 can be seen by overlaying them with the AFF4 peptide LFAEP structure. (D) Dose-dependent inhibition of KL-1 and KL-2 on AFF4-CCNT1 interaction. The Ki constants of both compounds were measured with the AlphaLISA assays. (E) Treatment of HEK293T cells with KL-1 and KL-2 results in reduced protein levels of SEC components AFF1 and AFF4 but not CDK9 or CCNT1. HEK293T cells were treated with 20 μM of SEC inhibitors KL-1 or KL-2 for 6 hr. 5 μl, 10 and 20 μl cell lysates were loaded and the protein levels of AFF1, AFF4, CCNT1, CDK9 and Tubulin (load control) were determined by western blotting.
FIG. 8, related to FIG. 1. Peptidomimetic identification of disruptors of the AFF4-CCNT1 interaction within the Super Elongation Complex. (A) Schematic of AlphaLISA assay of the AFF4-CCNT1 interaction. Anti-GST AlphaLISA acceptor beads and AlphaScreen streptavidin donor beads (Perkin Elmer) were used to detect the interaction of GST-CCNT1 (AA1-300) and biotin-AFF4 (AA32-67). (B-C) Optimization of the AlphaLISA assay with various biotin-AFF4 peptide and GST-CCNT1 concentrations. No CCNT1 (B) and mutant AFF4 (C) were used as negative controls. Data are represented as Mean+/−SD. (D) Scheme for chemical synthesis of SEC inhibitors KL-1 and KL-2. Reagents and conditions: a. LDA, THF, −78° C., 15 min., then diethyl oxalate, −78° C. to room temperature. b. NaOH, THF/H2O, room temperature, 15 min. c. EEDQ, 5-chloro-2-methylaniline, THF, room temperature, 24 hr. […] 293T cells were treated with 20 μM of KL-1 or KL-2 for 6 hr, and the protein levels of BRD2, BRD4, Pol II (RPB1), SPT5, MED26, MYC, HSP90 (load control) and Tubulin (load control) were measured by western blotting. (F) Treatment of HCT-116 cells with KL-1 and KL-2 reduced protein levels of SEC components AFF1 and AFF4 but not CDK9 or CCNT1. HCT-116 cells were treated with 20 μM of KL-1 or KL-2 for 6 hr, and the protein levels of AFF1, AFF4, CCNT1, CDK9 and Tubulin (load control) were determined by western blotting. (G-H) Treating cells with KL-1 and KL-2 results in reduced levels of AFF 1 and AFF4. FLAG-AFF1 (G) and FLAG-AFF4 (H) were expressed under the Tet-inducible promoter in HEK293T cells. Cells were treated with 20 μM of the indicated inhibitors for 6 hr for western blotting. […] RNA-seq was performed in HEK293T cells treated for 12 hr with 20 μM of the indicated inhibitors. The log2CPM (counts per million) of the SEC subunits were calculated with HTseq. KL-1 and KL-2 had no significant effects on CCNT1, CDK9 and AFF1 expression, but modest increases in the mRNA levels of AFF4 and ELL2 were observed (n=3). Unpaired two-way ANOVA was used for the statistical testes. **,p<0.05, ***,p<0.001.
To test if candidate compounds can disrupt the AFF4-CCNT1 interaction in vitro, we established and optimized a bead-based AlphaLISA assay with recombinant CCNT1 (1-300) protein and synthesized Biotin-AFF4 peptides (AA 32-67) (FIGS. 8A, 8B and 8C).
AlphaLISA Assay. The interaction of CCNT1-AFF4 was measured by Perkin Elmer's bead-based AlphaLISA assays. […]

In the next test the test system is MDA231-LM2 cells. Put plainly: Colony formation of MDA231-LM2 cells in vitro. Type of test: cell-based. Particulars: 5 days. Here is the method: FIG. 14, related to FIG. 7. SEC disruptors delay tumor progression and improve survival of MDA231-LM2 tumor mice. (A) KL-1 and KL-2 inhibit the colony formation of MDA231-LM2 cells in vitro. 5×10^3 MDA231-LM2 cells were seeded in 6-well plates and treated with KL-1 or KL-2 at the indicated doses for 5 days. Crystal violet staining was performed to stain the colonies. (B) KL-1 and KL-2 induce apoptosis in MDA231-LM2 cells. Bar graph depiction of Annexin V positive MDA231-LM2 cells after 24 hr of KL-1 and KL-2 treatments at the indicated concentrations. Data are represented as Mean+/−SD. […] Each individual line indicates the weights of each mouse during toxicity test.

T1 sequence (O60563 1-300): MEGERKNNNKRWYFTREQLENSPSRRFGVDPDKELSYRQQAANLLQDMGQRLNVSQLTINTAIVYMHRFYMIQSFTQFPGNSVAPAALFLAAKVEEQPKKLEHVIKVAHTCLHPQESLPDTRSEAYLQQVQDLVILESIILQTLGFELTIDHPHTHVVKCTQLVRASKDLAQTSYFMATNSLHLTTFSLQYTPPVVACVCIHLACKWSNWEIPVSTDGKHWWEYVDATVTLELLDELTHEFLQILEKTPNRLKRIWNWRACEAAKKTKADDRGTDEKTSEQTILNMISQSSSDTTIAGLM

With `COc1cccc(C(=O)CC(=O)C(=O)Nc2cc(Cl)ccc2C)c1` [KL-1, N-(5-chloro-2-methylphenyl)-4-oxo-4-(3-methoxyphenyl)-2-oxobutanamide], in test [1] (AlphaLISA, IC50 converted to Ki with the Cheng and Prusoff equation, read-out: Ki, inhibition of the AFF4-CCNT1 interaction), the inhibition constant (Ki) (in general, a measure of affinity in units of concentration, obtained from inhibition or displacement) stood at 3.48 µM. In addition, the “disruption of the AFF4-CCNT1 interaction” value in test [1] (tested at 20 μM) was “could inhibit the interaction of AFF4-CCNT1”. For the same compound, the colony formation capability entry with MDA231-LM2 cells was “could inhibit the colony formation capability”.

(Values after patent publication US11453640B2, “Small molecules for disrupting the super elongation complex and inhibiting transcription elongation for cancer therapy” (NORTHWESTERN UNIVERSITY, priority 2018, dated 2022).)
